No end group written: not given here.
Assays:
naïve CD4+CD25− cells = assay: Treg induction from naïve T cells by soluble factors (FoxP3 staining, flow cytometry); format: cell-based, mouse
[1] = cited from earlier work
[2] = tested on: dendritic cells / FoxP3+ CD4+ T-cells; assay: VIP bioactivity assay: DC culture and CD4+ T cell chemotaxis; format: cell-based, mouse; conditions: LPS
Experimental: Three separate DC cultures with 24 individual wells were completed in accordance with Example XIII Both GM-CSF and IL-4 were used to culture the cells in the first two DC cell cultures, but for the third DC culture, the IL-4 was omitted to reduce its possible interference in steering immune cells toward a tolerogenic phenotype. Chemotaxis studies of CD4+ T-cells were performed and the percent of FoxP3+ T-cells which flowed through the transwells for each group was evaluated using flow. The data is presented as a normalized percent of FoxP3+ cells which were recruited by the DCs for the first DC when both IL-4 and GM-CSF were used to culture the DC precursors and when GM-CSF was used alone in the last DC culture. […] See, FIG. 15.
When the DC culture was repeated with the absence of IL-4 and addition of 5×GM-CSF, flow cytometry indicated slightly different trends. […]
In the first two experiments, both GM-CSF and IL-4 were added to DC media (modified RPMI 1640) of bone marrow cell cultures during media changes on Days 0, 3 and 6. […] Five different groups of four wells each were analyzed and received treatment. […]
CD4+ T-cells were isolated from the spleen and lymph nodes of a mouse using Dynal® beads following a standard protocol. […] T Cells that flowed through were analyzed for FoxP3+ expression using flow cytometry.

TGF-β: recombinant human TGF-β1 (CHO cell-derived, PeproTech), transforming growth factor β1
percent of CD4+ that express FoxP3 (naïve CD4+CD25− cells; RA 0 ng/ml, TGF-β 0.5 ng/ml (Table 2)): 8.08%
percent of CD4+ that express FoxP3 (naïve CD4+CD25− cells; RA 0 ng/ml, TGF-β 5 ng/ml (Table 2)): 28.52%
percent of CD4+ that express FoxP3 (naïve CD4+CD25− cells; RA 0 ng/ml, TGF-β 20 ng/ml (Table 2)): 27.42%
percent of CD4+ that express FoxP3 (naïve CD4+CD25− cells; Rapa 0 ng/ml, TGF-β 0.1 ng/ml (Table 1)): 0.61%
percent of CD4+ that express FoxP3 (naïve CD4+CD25− cells; Rapa 0 ng/ml, TGF-β 1 ng/ml (Table 1)): 2.82%
percent of CD4+ that express FoxP3 (naïve CD4+CD25− cells; Rapa 0 ng/ml, TGF-β 5 ng/ml (Table 1)): 18.16%
percent of CD4+ that express FoxP3 (naïve CD4+CD25− cells; Rapa 0 ng/ml, TGF-β 20 ng/ml (Table 1)): 53.26%

CO[C@H]1C[C@@H]2CC[C@@H](C)[C@@](O)(O2)C(=O)C(=O)N2CCCC[C@H]2C(=O)O[C@H]([C@H](C)C[C@@H]2CC[C@@H](O)[C@H](OC)C2)CC(=O)[C@H](C)/C=C(\C)[C@@H](O)[C@@H](OC)C(=O)[C@H](C)C[C@H](C)/C=C/C=C/C=C/1C [Rapa, rapamycin]
percent of CD4+ that express FoxP3 (naïve CD4+CD25− cells; Rapa 1 ng/ml, TGF-β 0 ng/ml): 1.91%
percent of CD4+ that express FoxP3 (naïve CD4+CD25− cells; Rapa 1 ng/ml, TGF-β 0.1 ng/ml): 3.04%
percent of CD4+ that express FoxP3 (naïve CD4+CD25− cells; Rapa 1 ng/ml, TGF-β 1 ng/ml): 8.89%
percent of CD4+ that express FoxP3 (naïve CD4+CD25− cells; Rapa 1 ng/ml, TGF-β 5 ng/ml): 34.41%
percent of CD4+ that express FoxP3 (naïve CD4+CD25− cells; Rapa 1 ng/ml, TGF-β 20 ng/ml): 76.22%
percent of CD4+ that express FoxP3 (naïve CD4+CD25− cells; Rapa 10 ng/ml, TGF-β 0 ng/ml): 3.45%
percent of CD4+ that express FoxP3 (naïve CD4+CD25− cells; Rapa 10 ng/ml, TGF-β 0.1 ng/ml): 5.31%
percent of CD4+ that express FoxP3 (naïve CD4+CD25− cells; Rapa 10 ng/ml, TGF-β 1 ng/ml): 14.48%
percent of CD4+ that express FoxP3 (naïve CD4+CD25− cells; Rapa 10 ng/ml, TGF-β 5 ng/ml): 51.08%
percent of CD4+ that express FoxP3 (naïve CD4+CD25− cells; Rapa 10 ng/ml, TGF-β 20 ng/ml): 78.27%
percent of CD4+ that express FoxP3 (naïve CD4+CD25− cells; Rapa 100 ng/ml, TGF-β 0 ng/ml): 4.13%
percent of CD4+ that express FoxP3 (naïve CD4+CD25− cells; Rapa 100 ng/ml, TGF-β 0.1 ng/ml): 7.8%
percent of CD4+ that express FoxP3 (naïve CD4+CD25− cells; Rapa 100 ng/ml, TGF-β 1 ng/ml): 22.05%
percent of CD4+ that express FoxP3 (naïve CD4+CD25− cells; Rapa 100 ng/ml, TGF-β 5 ng/ml): 54.19%
percent of CD4+ that express FoxP3 (naïve CD4+CD25− cells; Rapa 100 ng/ml, TGF-β 20 ng/ml): 80.36%

CC1=C(/C=C/C(C)=C/C=C/C(C)=C/C(=O)O)C(C)(C)CCC1 [RA, all-trans retinoic acid]
toxicity upon local administration [1]: induce hypervitaminosis-A
percent of CD4+ that express FoxP3 (naïve CD4+CD25− cells; RA 0.1 ng/ml, TGF-β 0 ng/ml): 2.71%
percent of CD4+ that express FoxP3 (naïve CD4+CD25− cells; RA 0.1 ng/ml, TGF-β 0.5 ng/ml): 11.98%
percent of CD4+ that express FoxP3 (naïve CD4+CD25− cells; RA 0.1 ng/ml, TGF-β 5 ng/ml): 35.18%
percent of CD4+ that express FoxP3 (naïve CD4+CD25− cells; RA 0.1 ng/ml, TGF-β 20 ng/ml): 28.33%
percent of CD4+ that express FoxP3 (naïve CD4+CD25− cells; RA 1 ng/ml, TGF-β 0 ng/ml): 2.64%
percent of CD4+ that express FoxP3 (naïve CD4+CD25− cells; RA 1 ng/ml, TGF-β 0.5 ng/ml): 10.5%
percent of CD4+ that express FoxP3 (naïve CD4+CD25− cells; RA 1 ng/ml, TGF-β 5 ng/ml): 44.71%
percent of CD4+ that express FoxP3 (naïve CD4+CD25− cells; RA 1 ng/ml, TGF-β 20 ng/ml): 42.25%
percent of CD4+ that express FoxP3 (naïve CD4+CD25− cells; RA 10 ng/ml, TGF-β 0 ng/ml): 2.27%
percent of CD4+ that express FoxP3 (naïve CD4+CD25− cells; RA 10 ng/ml, TGF-β 0.5 ng/ml): 9.36%
percent of CD4+ that express FoxP3 (naïve CD4+CD25− cells; RA 10 ng/ml, TGF-β 5 ng/ml): 42.22%
percent of CD4+ that express FoxP3 (naïve CD4+CD25− cells; RA 10 ng/ml, TGF-β 20 ng/ml): 45.97%
percent of CD4+ that express FoxP3 (naïve CD4+CD25− cells; RA 100 ng/ml, TGF-β 0 ng/ml): 2.23%
percent of CD4+ that express FoxP3 (naïve CD4+CD25− cells; RA 100 ng/ml, TGF-β 0.5 ng/ml): 10.01%
percent of CD4+ that express FoxP3 (naïve CD4+CD25− cells; RA 100 ng/ml, TGF-β 5 ng/ml): 50.71%
percent of CD4+ that express FoxP3 (naïve CD4+CD25− cells; RA 100 ng/ml, TGF-β 20 ng/ml): 43.43%

VIP: Vasoactive intestinal peptide, a 28-amino acid neuropeptide (HSDAVFTDNYTRLRKQMAVKKYLNSILN; ends and bridges not checked; UniProt P01282 125-152, looked up)
percentage of FoxP3+ cells recruited by treated DCs ([2]; DC precursors cultured with IL-4 and GM-CSF, versus LPS only or blank particle releasates): recruited a higher percentage of FoxP3+ cells
percentage of FoxP3+ cells recruited by treated DCs ([2]; no IL-4, 5×GM-CSF, relative to LPS alone): recruited the same percentage of FoxP3+ cells
